The values that follow come from US11840707B2, “Co-culture system and method for in vitro assessment of reverse cholesterol transport” (INSTITUT DE CARDIOLOGIE DE MONTREAL, priority 2016, dated 2023).

The test system of test [1] is HepG2 hepatocytes. Nature of the test: Co-culture assay: Specific Chol Uptake into HepG2 hepatocytes on insert membrane. As to conditions: for reduction of hepatic Specific Chol Uptake: 10 μM, HepG2 overnight and during co-culture. In kind it is cell-based, human. The text has this: (§1) Total Chol Efflux is the sum of co-culture medium counts plus hepatic counts, while Total Chol Uptake is defined as hepatic counts only. Both Chol Efflux and Chol Uptake are expressed as % of total counts in the system. Background values, corresponding to basal co-culture medium (without acceptors), can be subtracted from the corresponding values in presence of acceptors to obtain Specific Chol Efflux (%) and Specific Chol Uptake (%) values.
(§2) Simultaneous Measurement of Cholesterol Flux Between Cholesterol-Loaded, ^3H-Cholesterol-Labeled J774 Cells and Target HepG2 Hepatocytes in a Transwell-Clear™ Insert.
(§3) J774 cells were seeded at a density of 8,000 cells per cm^2 in 1 mL of Dulbecco's minimal essential medium (DMEM, high glucose) and supplemented with 10% fetal bovine serum (FBS) and 1% penicillin/streptomycin in standard 12-well (3.8 cm^2) flat bottom plates (Corning).
Transwell-Clear™ 12-well plates (Corning, cat. #3642), each consisting of 12 cylindrical cell culture inserts (1.12 cm^2 insert/well) were bathed with 2 mL Eagle's minimal essential medium (EMEM, low glucose) distributed as follows: 0.5 mL in the insert and 1.5 mL in the well. Loaded plates were pre-incubated in an incubator at 37° C. with 5% CO2 for 30-45 min without cells in order to improve later cell attachment and maximize cell spreading on the insert membrane during cell culture. After pre-incubation, the media was removed. The wells of the Transwell plates were then filled with 1.5 mL of EMEM (low glucose) supplemented with 10% FBS and 1% penicillin/streptomycin and HepG2 cells were seeded at a density of 60,000 cells per cm^2 in 0.5 mL EMEM (low glucose) supplemented with 10% FBS and 1% penicillin/streptomycin on each insert.
(§4) Following seeding in plates or inserts, both cell types were placed in a cell incubator at 37° C. filled with humidified air and 5% CO2 and incubated for 72 h.
(§5) Following the 72-hour incubation and achieving a J774 cell confluence of 70-80%, the J774 cells were washed with 1 mL per well of PBS at 20° C. After the wash, 1 mL of Labeling Medium was added to each well. The Labeling Medium contained: 1% FBS, 1% penicillin/streptomycin, 2 μCi/mL of ^3H-cholesterol (Perkin-Elmer, NET139005MC), 50 μg protein/mL of acetylated LDL (acLDL) and DMEM (high glucose). The cells were then incubated for 24 hr at 37° C. in a cell incubator filled with humidified air and 5% CO2. One plate served as a reference to determine the labeled-cholesterol level in cells prior to co-culture assay.
(§6) Following the 72-hour incubation, the culture medium was removed from HepG2 cells grown on the insert membrane and replaced with 2 mL of fresh EMEM (low glucose) supplemented with 10% FBS and 1% penicillin/streptomycin. The cells were then incubated for an additional 24 hours at 37° C. in an incubator filled with humidified air and 5% CO2.
(§7) Following the 24-hour incubation of J774 cells, the labeling medium was removed from the plates and discarded. The cells were then washed with 1 mL of phosphate-buffered saline (PBS) at 20° C. and replaced with Equilibration Medium containing: DMEM (high glucose), 0.2% Bovine Serum Albumin (BSA) (low endotoxin, fatty acid-free, Sigma, cat. #A8806) and the appropriate Treatment under study. The J774 culture was then incubated for 24 hours.
(§8) J774 cells ongoing the ^3H-cholesterol equilibration phase and/or HepG2 cells before co-culture can be treated by various means. Pharmacological agent is diluted in the appropriate culture medium with 0.2% BSA and vehicle (solvent) is tested in parallel. Modulation of gene expression is also accomplished at this step, by transfection of siRNA according to the manufacturer's protocol, and a control non-silencing RNA is tested in parallel.
After 24 hour of incubation, equilibration medium from J774 culture and culture medium from HepG2 cells were discarded. Cells were washed with 1 mL (J774) or 2 mL (HepG2) of PBS at 20° C. and the wash medium discarded.

Test [2] concerns J774 macrophages. The experiment in a line: Co-culture assay: Specific Chol Efflux from 3H-cholesterol-labeled J774 macrophages. In kind it is cell-based, murine.
Text: as §1, §2, §3
Loaded plates were pre-incubated in an incubator at 37° C. with 5% CO2 for 30-45 min without cells in order to improve later cell attachment and maximize cell spreading on the insert membrane during cell culture. After pre-incubation, the media was removed. The wells of the Transwell plates were then filled with 1.5 mL of EMEM (low glucose) supplemented with 10% FBS and 1% penicillin/streptomycin and HepG2 cells were seeded at a density of 60,000 cells per cm^2 in 0.5 mL EMEM (low glucose) supplemented with 10% FBS and 1% penicillin/streptomycin on each insert.
as §4, §5, §6, §7, §8
After 24 hour of incubation, equilibration medium from J774 culture and culture medium from HepG2 cells were discarded. Cells were washed with 1 mL (J774) or 2 mL (HepG2) of PBS at 20° C. and the wash medium discarded. Transwell inserts containing HepG2 cells were removed and transferred to each well containing the J774 culture. 2 mL of co-culture media (DMEM without phenol red, high glucose, 4.5 g/L) were added to each well. The resulting co-culture system was incubated in a cell incubator at 37° C. for 24 hours.

[3] abbreviates: 10 nM in co-culture medium for 24 h, acceptor complete human serum.
Setting [4] is: 24 h co-culture, one-site non-linear regression.
[5] abbreviates: purified acceptor, 24 h co-culture, one-site non-linear regression.
Where [6] appears, read: J774 pre-treated overnight 10 μM, acceptors HS and DHS, vs vehicle DMSO.

Turning to “PCSK9 D374Y: purified human PCSK9 gain-of-function D374Y mutant protein”, the “effect on Specific Chol Uptake” value in test [1] (setting [3]) is recorded as “markedly reduced”. The “effect on Specific Chol Efflux” value in test [2] (setting [3]) is reported as “no effect”; in test [2] (10 nM in co-culture medium for 24 h, acceptor complete human serum, listed as purified PCSK9 mutant) it was “did not influence”.

With “ApoA-I: human apolipoprotein A-I, purified, used as Chol acceptor”, in test [1] (setting [4]), the “Bmax (maximal flux), Specific Uptake” value is 0.83 ± 0.03%. For the same molecule, the “kA (affinity constant), Specific Uptake” value in test [1] (setting [5]) amounted to 7.0 ± 1.0 μg protein/mL. Moreover, in test [2] (setting [4]), the “Bmax (maximal flux), Specific Efflux” value was 15.9 ± 0.9%. The “Specific Chol Efflux compared to LDL” value in test [2] (acceptor at 100 μg/ml, 24 h co-culture) is recorded as “higher”. In test [2] (setting [5]), the “kA (affinity constant), Specific Efflux” value came to 7.2 ± 1.4 μg protein/mL.

For the molecule `CCOC(=O)N1c2ccc(C(F)(F)F)cc2[C@@H](N(Cc2cc(C(F)(F)F)cc(C(F)(F)F)c2)C(=O)OC)C[C@H]1CC` [torcetrapib], the “reduction of hepatic Specific Chol Uptake” value in test [1] (acceptor apoB-depleted serum) was 21%; in test [1] (acceptor apoB-depleted serum, listed as Torcetrapib), “reduced”; in test [1] (acceptor complete serum), 31%; in test [1] (acceptor complete serum, listed as Torcetrapib), “reduced”. The “effect on Specific Efflux” value in test [2] (10 μM, HepG2 overnight and during co-culture, acceptors HS and DHS) is given as “did not affect”.

For the molecule `CC[C@H](C)C(=O)O[C@H]1CCC=C2C=C[C@H](C)[C@H](CC[C@@H]3C[C@@H](O)CC(=O)O3)[C@H]21` [mevastatin], the “effect on Specific Chol Uptake” value is on record as “reduced effect” in test [1] (HepG2 pre-treated overnight 25 μM, acceptor apoB-depleted serum) and “significantly increased” in test [1] (HepG2 pre-treated overnight 25 μM, acceptor complete human serum). In addition, the “effect on Chol Uptake” value in test [1] (hepatocytes pre-treated 10 μM, acceptor apoB-depleted serum, compared to complete serum) was “reduced effect”. The “effect on hepatic Chol Uptake” value in test [1] (hepatocytes pre-treated 10 μM, acceptor complete human serum) is recorded as “increased”. Besides, the “effect on Specific Chol Efflux” value in test [2] (HepG2 pre-treated overnight 25 μM, acceptor human serum) is given as “did not change”. Moreover, in test [2] (hepatocytes pre-treated 10 μM, acceptor human serum), the “effect on Chol Efflux to human serum” value is “no effect”.

For `O=S(=O)(c1ccccc1)N(CC(F)(F)F)c1ccc(C(O)(C(F)(F)F)C(F)(F)F)cc1` [TO901317], the “effect on Specific Chol Uptake” value in test [1] (setting [6]) was “increased”. Moreover, the “effect on Specific Chol Efflux” value in test [2] (setting [6]) is given as “increased”.
